Test results from patent US7687465B2, “Therapeutic cancer vaccine” (Kraeftens Bekaempelse, priority 2003, dated 2010).

Target: T1, HLA-A2 (Homo sapiens, UniProt P04439, D140Y/D185E/D98H/E176V/E277Q/G131W/G231S/I119V/I121R/I166T/I218V/L300P/L318F/N151K/N90K/P208A/P217A/Q86G/Q94H/R138H/R169H/T345S)
T1 construct: stabilization of the class 1 molecule after loading of peptide to the peptide transporter deficient cell line T2; endogenous in cells; host or cells: T2 (TAP-deficient human cell line), metabolically labelled with [35S]-methionine and lysed
Experiment: Assembly assay for peptide binding to class I MHC molecules
Conditions: concentration of the peptide required for half maximal binding to HLA-A2; read-out: C50
Procedure: Assembly assays for binding of the synthetic peptides to class I MHC molecules metabolically labeled with [^35S]-methionine can be carried out as described below. It will be appreciated by the person skilled in the art that the protocol may be adopted for any peptide and any class I MHC molecule.
Briefly, TAP deficient cells were metabolically labeled with [^35S]-methionine (Amersham, Freiburg, Germany). The cells were lyzed in 0.5 ml lysis buffer (150 mM NaCl, 50 mM TrisHCl, 0.5% NP-40 (Fluka, Buchs, Switzerland), 5 mM EDTA, pH 7.5) with 0.5% Mega-9 (Sigma, St. Louis, USA) in the presence of protease inhibitors (2 mM PMSF, 5 mM iodoacetamide, 2 μg/ml pepstatin, 2 μg/ml leupeptin) with or without synthetic peptide (for a list of positive control peptides, see Table 2).
After 20 min of incubation, the cell nuclei were removed by centrifugation (5 min, 10,000 g) and 50 μl (10% v/v) freshly washed Staphylococcus aureus organisms (Pansorbin, Calbiochem, Nottingham, UK). The next day Pansorbin was removed by centrifugation (12 min, 16,000 g) and the appropriate monoclonal antibody was added at a final concentration of 10 μg/ml, incubated for 90 min, followed by addition of protein A-Sepharose (75 μl, 10% v/v) and incubation for 1 h. The beads were washed 4 times and stored at −20° C. until analysis by electrophoresis.
In the case of an assembly assay with the HLA class I-specific conformation-dependent monoclonal antibody W6/32, samples were eluted in reducing buffer (9.5 M urea, 2% NP-40, 5% 2-mercaptoethanol, 2% Ampholines, pH range 3.5-9.5 (Pharmacia Biotech, Uppsala, Sweden)) and focused for 16 h at 880 V on 5.5% polyacrylamide isoelectric focusing (IEF) gels^20,39.
Samples from assembly assays with allele-specific antibodies were eluted by boiling (5 min) in SDS reducing buffer (50 mM TrisHCl pH 6.8, 2% SDS, 5% 2-mercaptoethanol, 10% glycerol, 2.5% bromophenol blue) and electrophorezed on 12% SDS-PAGE gels (1 h at 200 V). All gels were fixed in 10% acetic acid with 5% methanol and dried onto 3 MM paper (Whatman, Maidstone, UK). MHC heavy chain bands were quantified using the Imagequant Phosphorimager program (Molecular Dynamics, Sunnyvale, Calif., USA). The intensity of the band is directly related to the amount of peptide-bound class I MHC complex recovered during the assay. C50 value (μM) as the concentration of the peptide required for half maximal binding to MHC may thus be determined. The binding affinities of the analysed peptides are determined according to their efficiency of stabilising the HLA class I molecules. The binding affinity is represented as the peptide concentration required to reach half-maximal stabilistation of appropriate HLA-molecule.
Assembly assays for binding of the synthetic peptides to class I MHC molecules metabolically labeled with [^35S]-methionine were carried out as described^15,16. The assembly assay is based on stabilization of the class 1 molecule after loading of peptide to the peptide transporter deficient cell line T2. Subsequently correctly folded stable MHC heavy chains are immunoprecipitated using conformation-dependent antibodies. After IEF electrophoresis, gels were exposed to phosphorImager screens, and peptide binding was quantitated using the Imagequant PhosphorImager program (Molecular Dynamics, Sunnyvale, Calif.).

EC50: 1000 nM
Compound: CC(C)C[C@H](NC(=O)[C@@H](N)CCCNC(=N)N)C(=O)N[C@@H](CCC(N)=O)C(=O)N[C@@H](CCC(=O)O)C(=O)N[C@@H](CCC(=O)O)C(=O)N[C@@H](CCCNC(=N)N)C(=O)N[C@H](C(=O)N[C@@H](CS)C(=O)N[C@@H](CCCCN)C(=O)N[C@H](C(=O)O)C(C)C)[C@@H](C)O [ML-IAP245]
